{"source": "paper PMC9653409", "about": "“Generative deep learning enables the discovery of a potent and selective RIPK1 inhibitor” (Nature Communications, 2022)", "key": {"DSS-induced IBD": {"tested_on": "DSS-induced IBD", "experiment": "DSS-induced IBD mouse model: colon H&E and S100a9 immunohistochemistry", "assay_type": "in vivo, C57BL/6 female mice", "conditions": "40 mg/kg i.p., day 7", "description": "The heart, liver, spleen, lung, kidney and colon tissues were fixed directly in 4% paraformaldehyde (24 h), embedded in paraffin, and stained with H&E following standard procedures. All images were acquired using a Pannoramic MIDI scanner. The colon tissues were fixed in 4% paraformaldehyde for 24 h. The tissues were sliced to a thickness of […], deparaffinized with xylene, and rehydrated with graded ethanol. The tissue sections were then placed in a repair box filled with citric acid (pH 6.0) antigen retrieval buffer for antigen retrieval in a microwave oven followed by the quenching of endogenous peroxidase activity in 3% hydrogen peroxide. The sections were incubated overnight at 4 °C with primary antibody (S100a9, 73425, CST), which was prepared in PBS (pH 7.4) according to the manufacturer’s instructions. The sections were then washed three times with PBS, incubated for 1 h with the appropriate secondary antibodies, and staining with freshly prepared DAB color developing solution. Subsequently, the sections were counterstained with hematoxylin and mounted in non-aqueous mounting medium. All images were acquired using a Pannoramic MIDI scanner."}, "[1]": {"biological_target": "panel of human kinases (kinase named in endpoint) (Homo sapiens, UniProt Q6IQ55)", "experiment": "Kinase inhibitory activity profiling of RI-962@10 µM (406 kinases, Eurofins)", "assay_type": "biochemical", "conditions": "10 µM; read-out: Activity (%), TTBK2(h)", "description": "(§1) In vitro kinase activity assays were conducted through the Kinase Profiling Services provided by Eurofins (Eurofins, France). The protocol for the RIPK1 assay is briefly described as follows (Protocols for other kinases are very similar and can be found in http://www.eurofins.com/pharmadiscovery). RIPK1 kinase was incubated with the test compound in assay buffer containing 8 mM MOPS (pH 7.0), 0.2 mM EDTA, 250 μM […], 10 mM magnesium acetate, and 10 μM [γ-33P]-ATP for 15 min at room temperature. The reaction was initiated by the addition of the Mg/ATP mixture. After incubation for 40 min at room temperature, and the reaction was stopped by the addition of 3% phosphoric acid. A 10 μL portion of the reaction mixture was then spotted onto a P30 filter mat and washed four times for 4 min in 0.425% phosphoric acid and once in methanol prior to drying and scintillation counting."}, "[2]": {"biological_target": "panel of human kinases (kinase named in endpoint) (Homo sapiens, UniProt Q00535)", "sequence (Q00535 whole entry)": "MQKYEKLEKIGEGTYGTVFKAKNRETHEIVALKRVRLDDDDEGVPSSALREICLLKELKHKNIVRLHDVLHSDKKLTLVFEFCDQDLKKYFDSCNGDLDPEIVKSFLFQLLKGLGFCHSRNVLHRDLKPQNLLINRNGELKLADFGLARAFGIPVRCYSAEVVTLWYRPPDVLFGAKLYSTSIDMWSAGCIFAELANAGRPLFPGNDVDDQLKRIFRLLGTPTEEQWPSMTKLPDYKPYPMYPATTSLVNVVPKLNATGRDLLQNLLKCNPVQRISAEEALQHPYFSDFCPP", "experiment": "Kinase inhibitory activity profiling of RI-962@10 µM (406 kinases, Eurofins)", "assay_type": "biochemical", "conditions": "10 µM", "description": "as §1"}, "[3]": {"biological_target": "panel of human kinases (kinase named in endpoint) (Homo sapiens, UniProt Q16620)", "experiment": "Kinase inhibitory activity profiling of RI-962@10 µM (406 kinases, Eurofins)", "assay_type": "biochemical", "conditions": "10 µM; read-out: Activity (%), TrkB(h)", "description": "as §1"}, "[4]": {"biological_target": "panel of human kinases (kinase named in endpoint) (Homo sapiens, UniProt P0C1S8)", "sequence (P0C1S8 whole entry)": "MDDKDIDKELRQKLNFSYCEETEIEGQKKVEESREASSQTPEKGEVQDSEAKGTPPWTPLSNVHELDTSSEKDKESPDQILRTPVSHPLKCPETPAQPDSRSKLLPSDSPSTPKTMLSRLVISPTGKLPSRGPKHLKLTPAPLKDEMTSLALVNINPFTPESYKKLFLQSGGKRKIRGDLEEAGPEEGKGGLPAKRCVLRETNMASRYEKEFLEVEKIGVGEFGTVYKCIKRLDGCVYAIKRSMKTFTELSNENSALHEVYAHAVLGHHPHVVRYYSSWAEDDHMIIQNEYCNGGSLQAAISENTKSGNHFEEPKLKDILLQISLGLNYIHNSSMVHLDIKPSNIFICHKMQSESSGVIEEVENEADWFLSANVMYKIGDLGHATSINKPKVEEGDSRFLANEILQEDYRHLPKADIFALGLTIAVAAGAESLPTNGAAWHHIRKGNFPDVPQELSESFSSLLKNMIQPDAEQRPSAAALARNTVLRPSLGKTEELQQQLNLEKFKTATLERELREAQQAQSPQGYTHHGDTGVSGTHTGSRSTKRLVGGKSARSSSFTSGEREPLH", "experiment": "Kinase inhibitory activity profiling of RI-962@10 µM (406 kinases, Eurofins)", "assay_type": "biochemical", "conditions": "10 µM; read-out: Activity (%), Wee1B(h)", "description": "as §1"}, "[5]": {"biological_target": "panel of human kinases (kinase named in endpoint) (Homo sapiens, UniProt P08581, D1228H)", "experiment": "Kinase inhibitory activity profiling of RI-962@10 µM (406 kinases, Eurofins)", "assay_type": "biochemical", "conditions": "10 µM; read-out: Activity (%), Met(D1246H)(h)", "description": "as §1"}, "[6]": {"biological_target": "panel of human kinases (kinase named in endpoint) (Homo sapiens, UniProt Q86Y07)", "experiment": "Kinase inhibitory activity profiling of RI-962@10 µM (406 kinases, Eurofins)", "assay_type": "biochemical", "conditions": "10 µM; read-out: Activity (%), VRK2(h)", "description": "as §1"}, "[7]": {"biological_target": "panel of human kinases (kinase named in endpoint) (Homo sapiens, UniProt Q15418)", "experiment": "Kinase inhibitory activity profiling of RI-962@10 µM (406 kinases, Eurofins)", "assay_type": "biochemical", "conditions": "10 µM; read-out: Activity (%), Rsk1(h)", "description": "as §1"}, "[8]": {"biological_target": "panel of human kinases (kinase named in endpoint) (Homo sapiens, UniProt Q8TF76)", "experiment": "Kinase inhibitory activity profiling of RI-962@10 µM (406 kinases, Eurofins)", "assay_type": "biochemical", "conditions": "10 µM; read-out: Activity (%), Haspin(h)", "description": "as §1"}, "[9]": {"biological_target": "panel of human kinases (kinase named in endpoint) (Homo sapiens, UniProt Q06187, R28H)", "sequence (Q06187 whole entry R28H)": "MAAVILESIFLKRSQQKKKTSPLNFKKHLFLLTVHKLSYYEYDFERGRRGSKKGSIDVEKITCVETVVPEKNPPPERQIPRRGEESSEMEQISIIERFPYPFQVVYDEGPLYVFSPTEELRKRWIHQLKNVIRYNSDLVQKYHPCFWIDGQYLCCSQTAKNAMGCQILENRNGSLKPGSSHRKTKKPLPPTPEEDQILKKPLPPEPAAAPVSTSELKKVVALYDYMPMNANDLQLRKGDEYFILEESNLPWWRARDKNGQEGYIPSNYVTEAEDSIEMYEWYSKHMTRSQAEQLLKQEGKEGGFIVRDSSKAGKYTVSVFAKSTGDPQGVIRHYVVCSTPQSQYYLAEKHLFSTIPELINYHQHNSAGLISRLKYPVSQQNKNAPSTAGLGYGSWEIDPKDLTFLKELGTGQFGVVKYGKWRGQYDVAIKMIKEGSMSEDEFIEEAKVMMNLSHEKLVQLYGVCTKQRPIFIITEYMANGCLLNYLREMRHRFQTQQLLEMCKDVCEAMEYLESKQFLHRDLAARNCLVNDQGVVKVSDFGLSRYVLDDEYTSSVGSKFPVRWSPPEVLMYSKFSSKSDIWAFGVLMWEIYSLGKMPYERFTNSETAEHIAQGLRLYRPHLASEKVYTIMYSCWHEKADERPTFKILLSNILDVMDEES", "experiment": "Kinase inhibitory activity profiling of RI-962@10 µM (406 kinases, Eurofins)", "assay_type": "biochemical", "conditions": "10 µM; read-out: Activity (%), BTK(R28H)(h)", "description": "as §1"}, "[10]": {"biological_target": "panel of human kinases (kinase named in endpoint) (Homo sapiens, UniProt P00533, L861Q)", "experiment": "Kinase inhibitory activity profiling of RI-962@10 µM (406 kinases, Eurofins)", "assay_type": "biochemical", "conditions": "10 µM; read-out: Activity (%), EGFR(L861Q)(h)", "description": "as §1"}, "[11]": {"biological_target": "panel of human kinases (kinase named in endpoint) (Homo sapiens, UniProt Q14164)", "sequence (Q14164 whole entry)": "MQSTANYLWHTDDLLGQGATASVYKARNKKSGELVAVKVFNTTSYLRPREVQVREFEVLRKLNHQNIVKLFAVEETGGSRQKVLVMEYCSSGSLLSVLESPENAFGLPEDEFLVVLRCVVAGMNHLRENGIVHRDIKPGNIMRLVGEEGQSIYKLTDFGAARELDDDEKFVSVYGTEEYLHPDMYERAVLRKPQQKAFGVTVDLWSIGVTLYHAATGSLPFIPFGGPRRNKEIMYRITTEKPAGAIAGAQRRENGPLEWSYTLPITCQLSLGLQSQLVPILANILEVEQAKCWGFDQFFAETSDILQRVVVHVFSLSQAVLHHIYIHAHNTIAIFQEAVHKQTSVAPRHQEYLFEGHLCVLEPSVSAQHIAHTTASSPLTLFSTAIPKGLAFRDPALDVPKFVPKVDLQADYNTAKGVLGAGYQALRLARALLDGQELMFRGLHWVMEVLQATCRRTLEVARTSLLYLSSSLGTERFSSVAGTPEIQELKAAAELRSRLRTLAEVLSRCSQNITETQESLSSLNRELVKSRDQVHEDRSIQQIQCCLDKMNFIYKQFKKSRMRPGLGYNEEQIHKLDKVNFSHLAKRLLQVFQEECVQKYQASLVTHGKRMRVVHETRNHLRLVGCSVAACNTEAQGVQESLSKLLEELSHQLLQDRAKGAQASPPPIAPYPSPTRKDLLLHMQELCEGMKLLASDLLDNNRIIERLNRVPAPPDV", "experiment": "Kinase inhibitory activity profiling of RI-962@10 µM (406 kinases, Eurofins)", "assay_type": "biochemical", "conditions": "10 µM; read-out: Activity (%), IKKε(h)", "description": "as §1"}, "[12]": {"biological_target": "panel of human kinases (kinase named in endpoint) (Homo sapiens, UniProt Q9UKI8)", "experiment": "Kinase inhibitory activity profiling of RI-962@10 µM (406 kinases, Eurofins)", "assay_type": "biochemical", "conditions": "10 µM; read-out: Activity (%), TLK1(h)", "description": "as §1"}, "[13]": {"biological_target": "panel of human kinases (kinase named in endpoint) (Homo sapiens, UniProt P07949, V804M)", "sequence (P07949 29-1114 V804M)": "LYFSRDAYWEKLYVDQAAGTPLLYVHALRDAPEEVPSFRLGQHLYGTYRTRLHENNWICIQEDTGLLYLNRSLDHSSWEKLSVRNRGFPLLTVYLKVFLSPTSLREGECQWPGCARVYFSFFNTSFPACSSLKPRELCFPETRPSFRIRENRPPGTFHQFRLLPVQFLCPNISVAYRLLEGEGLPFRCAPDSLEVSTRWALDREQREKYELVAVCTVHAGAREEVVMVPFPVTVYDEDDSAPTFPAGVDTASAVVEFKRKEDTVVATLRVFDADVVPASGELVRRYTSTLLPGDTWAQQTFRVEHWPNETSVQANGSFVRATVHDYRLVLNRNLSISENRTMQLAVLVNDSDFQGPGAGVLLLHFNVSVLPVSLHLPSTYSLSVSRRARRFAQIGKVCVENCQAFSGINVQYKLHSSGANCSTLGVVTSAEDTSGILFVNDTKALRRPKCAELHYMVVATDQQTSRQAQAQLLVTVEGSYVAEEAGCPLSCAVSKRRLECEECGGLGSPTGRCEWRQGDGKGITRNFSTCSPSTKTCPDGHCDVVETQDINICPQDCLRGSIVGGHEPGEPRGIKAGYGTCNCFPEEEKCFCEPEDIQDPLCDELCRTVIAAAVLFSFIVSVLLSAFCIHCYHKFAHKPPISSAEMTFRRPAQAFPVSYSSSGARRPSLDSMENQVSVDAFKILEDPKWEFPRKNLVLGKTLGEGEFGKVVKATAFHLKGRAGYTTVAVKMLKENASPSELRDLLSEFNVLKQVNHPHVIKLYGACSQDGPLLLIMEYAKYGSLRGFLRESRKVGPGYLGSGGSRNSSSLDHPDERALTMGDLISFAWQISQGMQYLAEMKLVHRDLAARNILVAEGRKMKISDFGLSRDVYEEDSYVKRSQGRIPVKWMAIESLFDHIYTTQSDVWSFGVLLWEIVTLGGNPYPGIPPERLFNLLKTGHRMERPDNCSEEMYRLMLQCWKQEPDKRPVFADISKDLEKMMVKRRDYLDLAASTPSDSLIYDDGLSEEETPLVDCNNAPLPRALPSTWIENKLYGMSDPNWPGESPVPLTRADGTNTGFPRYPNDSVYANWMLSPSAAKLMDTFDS", "experiment": "Kinase inhibitory activity profiling of RI-962@10 µM (406 kinases, Eurofins)", "assay_type": "biochemical", "conditions": "10 µM; read-out: Activity (%), Ret(V804M)(h)", "description": "as §1"}, "[14]": {"biological_target": "panel of human kinases (kinase named in endpoint) (Homo sapiens, UniProt P22694)", "experiment": "Kinase inhibitory activity profiling of RI-962@10 µM (406 kinases, Eurofins)", "assay_type": "biochemical", "conditions": "10 µM; read-out: Activity (%), PKAcβ(h)", "description": "as §1"}, "[15]": {"biological_target": "panel of human kinases (kinase named in endpoint) (Homo sapiens, UniProt P42336)", "sequence (P42336 whole entry)": "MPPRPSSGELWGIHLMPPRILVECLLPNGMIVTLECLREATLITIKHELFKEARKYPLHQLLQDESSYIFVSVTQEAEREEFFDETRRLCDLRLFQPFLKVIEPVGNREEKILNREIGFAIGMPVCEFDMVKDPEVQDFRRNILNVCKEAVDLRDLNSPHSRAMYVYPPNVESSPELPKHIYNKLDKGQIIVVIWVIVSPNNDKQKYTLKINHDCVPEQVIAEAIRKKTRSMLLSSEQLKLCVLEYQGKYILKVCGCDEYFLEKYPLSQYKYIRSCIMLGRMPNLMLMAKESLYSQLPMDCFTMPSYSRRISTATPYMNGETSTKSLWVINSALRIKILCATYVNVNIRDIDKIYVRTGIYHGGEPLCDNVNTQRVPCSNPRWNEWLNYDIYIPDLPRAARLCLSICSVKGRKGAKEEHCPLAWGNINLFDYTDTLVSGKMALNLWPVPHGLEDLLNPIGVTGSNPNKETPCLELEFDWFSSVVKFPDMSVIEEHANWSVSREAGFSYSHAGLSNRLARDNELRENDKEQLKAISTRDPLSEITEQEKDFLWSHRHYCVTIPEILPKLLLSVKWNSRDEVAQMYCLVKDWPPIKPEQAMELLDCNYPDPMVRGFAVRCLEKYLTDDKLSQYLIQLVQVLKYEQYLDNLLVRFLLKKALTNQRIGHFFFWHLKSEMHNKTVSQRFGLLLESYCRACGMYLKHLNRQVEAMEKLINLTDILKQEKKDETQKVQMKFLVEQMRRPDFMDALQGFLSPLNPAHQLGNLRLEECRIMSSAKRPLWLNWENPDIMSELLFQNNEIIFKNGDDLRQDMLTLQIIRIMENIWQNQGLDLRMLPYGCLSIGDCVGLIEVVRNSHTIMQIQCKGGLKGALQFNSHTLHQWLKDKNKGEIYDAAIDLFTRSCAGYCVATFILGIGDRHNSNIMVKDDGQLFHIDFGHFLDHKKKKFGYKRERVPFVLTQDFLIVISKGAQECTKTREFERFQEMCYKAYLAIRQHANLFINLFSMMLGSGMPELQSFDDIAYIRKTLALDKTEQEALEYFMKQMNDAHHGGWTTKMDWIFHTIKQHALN", "experiment": "Kinase inhibitory activity profiling of RI-962@10 µM (406 kinases, Eurofins)", "assay_type": "biochemical", "conditions": "10 µM", "description": "as §1"}, "[16]": {"biological_target": "panel of human kinases (kinase named in endpoint) (Homo sapiens, UniProt P54646)", "sequence (P54646 whole entry)": "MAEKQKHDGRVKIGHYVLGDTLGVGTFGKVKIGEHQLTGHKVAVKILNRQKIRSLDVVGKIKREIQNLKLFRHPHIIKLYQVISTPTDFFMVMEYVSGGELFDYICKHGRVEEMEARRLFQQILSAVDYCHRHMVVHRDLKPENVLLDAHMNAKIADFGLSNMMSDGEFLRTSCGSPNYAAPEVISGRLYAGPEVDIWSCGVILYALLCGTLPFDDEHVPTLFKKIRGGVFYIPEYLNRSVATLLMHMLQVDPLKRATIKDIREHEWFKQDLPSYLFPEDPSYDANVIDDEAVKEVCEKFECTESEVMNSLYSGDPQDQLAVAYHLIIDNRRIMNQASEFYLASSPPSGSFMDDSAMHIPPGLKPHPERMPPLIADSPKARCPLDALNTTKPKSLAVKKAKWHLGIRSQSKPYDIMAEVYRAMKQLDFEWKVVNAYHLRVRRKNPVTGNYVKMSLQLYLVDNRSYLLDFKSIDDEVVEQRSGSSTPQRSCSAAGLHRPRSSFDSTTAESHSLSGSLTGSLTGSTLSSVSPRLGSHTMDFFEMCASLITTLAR", "experiment": "Kinase inhibitory activity profiling of RI-962@10 µM (406 kinases, Eurofins)", "assay_type": "biochemical", "conditions": "10 µM; read-out: Activity (%), AMPKα2(h)", "description": "as §1"}, "[17]": {"biological_target": "panel of human kinases (kinase named in endpoint) (Homo sapiens, UniProt P21709)", "experiment": "Kinase inhibitory activity profiling of RI-962@10 µM (406 kinases, Eurofins)", "assay_type": "biochemical", "conditions": "10 µM; read-out: Activity (%), EphA1(h)", "description": "as §1"}, "[18]": {"biological_target": "panel of human kinases (kinase named in endpoint) (Homo sapiens, UniProt P42680)", "experiment": "Kinase inhibitory activity profiling of RI-962@10 µM (406 kinases, Eurofins)", "assay_type": "biochemical", "conditions": "10 µM; read-out: Activity (%), Tec(h) activated", "description": "as §1"}, "[19]": {"biological_target": "panel of human kinases (kinase named in endpoint) (Homo sapiens, UniProt Q8N5S9)", "experiment": "Kinase inhibitory activity profiling of RI-962@10 µM (406 kinases, Eurofins)", "assay_type": "biochemical", "conditions": "10 µM; read-out: Activity (%), CaMKK1(h)", "description": "as §1"}, "RIPK4": {"biological_target": "RIPK4 (Homo sapiens, UniProt P57078)", "experiment": "Kinase IC50 assay (Eurofins)", "assay_type": "biochemical", "description": "as §1"}, "RIPK3": {"biological_target": "RIPK3 (Homo sapiens, UniProt Q9Y572)", "experiment": "Kinase IC50 assay (Eurofins)", "assay_type": "biochemical", "description": "as §1"}}, "note": "Read-outs that look alike come from different tables or passages of the source.", "data": [{"smiles": "CC(C)C(=O)Nc1nc2cc(-c3ccc4c(c3)c(C(=O)NC(C)c3ccccc3)cn4C)ccn2n1", "note": "(stereo not shown) [RI-962]", "values": [{"measurement": "infiltration by S100a9-positive cells", "setting": "DSS-induced IBD", "value": "no infiltration by S100a9-positive cells was observed"}, {"measurement": "tissue damage in the colons (histopathology)", "setting": "DSS-induced IBD", "value": "substantially decreased tissue damage"}, {"measurement": "activity at 10 µM", "setting": "[1]", "value": 81, "unit": "%"}, {"measurement": "activity at 10 µM", "setting": "[2]; read-out: Activity (%), CDK5/p25(h)", "value": 92, "unit": "%"}, {"measurement": "activity at 10 µM", "setting": "[2]; read-out: Activity (%), CDK5/p35(h)", "value": 118, "unit": "%"}, {"measurement": "activity at 10 µM", "setting": "[3]", "value": 126, "unit": "%"}, {"measurement": "activity at 10 µM", "setting": "[4]", "value": 95, "unit": "%"}, {"measurement": "activity at 10 µM", "setting": "[5]", "value": 134, "unit": "%"}, {"measurement": "activity at 10 µM", "setting": "[6]", "value": 89, "unit": "%"}, {"measurement": "activity at 10 µM", "setting": "[7]", "value": 120, "unit": "%"}, {"measurement": "activity at 10 µM", "setting": "[8]", "value": 107, "unit": "%"}, {"measurement": "activity at 10 µM", "setting": "[9]", "value": 105, "unit": "%"}, {"measurement": "activity at 10 µM", "setting": "[10]", "value": 82, "unit": "%"}, {"measurement": "activity at 10 µM", "setting": "[11]", "value": 103, "unit": "%"}, {"measurement": "activity at 10 µM", "setting": "[12]", "value": 69, "unit": "%"}, {"measurement": "activity at 10 µM", "setting": "[13]", "value": 115, "unit": "%"}, {"measurement": "activity at 10 µM", "setting": "[14]", "value": 117, "unit": "%"}, {"measurement": "activity at 10 µM", "setting": "[15]; read-out: Activity (%), PI3 Kinase (p110a/p65a)(h)", "value": 97, "unit": "%"}, {"measurement": "activity at 10 µM", "setting": "[15]; read-out: Activity (%), PI3 Kinase (p110a/p85a)(h)", "value": 94, "unit": "%"}, {"measurement": "activity at 10 µM", "setting": "[16]", "value": 89, "unit": "%"}, {"measurement": "activity at 10 µM", "setting": "[17]", "value": 97, "unit": "%"}, {"measurement": "activity at 10 µM", "setting": "[18]", "value": 103, "unit": "%"}, {"measurement": "activity at 10 µM", "setting": "[19]", "value": 56, "unit": "%"}, {"measurement": "IC50", "setting": "RIPK4", "value": "> 10", "unit": "µM"}, {"measurement": "IC50", "setting": "RIPK3", "value": "> 10", "unit": "µM"}]}]}
